From ChEMBL document CHEMBL1131752, “Binding and catalysis by yeast aldose reductase: a substrate-analog approach with new aldose derivatives” (Bioorg Med Chem Lett, 1999)

Columns and labels:
[1] = system: Xylose reductase (Candida tenuis); experiment: Ratio of catalytic constant (kcat)/Kinetic constant(Km)
[2] = system: Xylose reductase (Candida tenuis); experiment: The catalytic constant(kcat) for the NADH-catalyzed by aldose reductase from candida tenuis; conditions: Yamadazyma tenuis

Structure (SMILES)	k cat/Km [1]	k cat [2]
OC1O[C@H](CF)[C@H](O)[C@H]1O (some centres undefined)	34300 M⁻¹ s⁻¹	22.3 s⁻¹
CC[C@H]1OC(O)[C@H](O)[C@H]1O (some centres undefined)	38900 M⁻¹ s⁻¹	20.6 s⁻¹
OC1OC(C(F)CF)C(O)C1O (centres undefined)	15300 M⁻¹ s⁻¹	21.4 s⁻¹
[N-]=[N+]=NC[C@H]1OC(O)[C@H](O)[C@H]1O (some centres undefined)	1690 M⁻¹ s⁻¹	
C[C@H]1OC(O)[C@H](O)[C@H]1O (some centres undefined)	23200 M⁻¹ s⁻¹	21.6 s⁻¹
